Results: US12264185B2, “Stabilized BCL9 peptides for treatment of aberrant Wnt signaling” (WntRx Pharmaceuticals Inc., priority 2015, dated 2025)
Where “and” joins values, the source holds several entries; their conditions need not be identical. Identical values can stand only once. Like-named read-outs stand apart in the source and are kept apart here.

Experiments:
Wnt/β-catenin signaling = assay: GeneBLAzer beta-lactamase Wnt transcription reporter assay, LEF/TCF-bla HCT-116 cells; type: cell-based
Excerpt: ICG001 was used as a comparison. The GeneBLAzer uses CellSensor™ LEF/TCF-bla HCT-116 cells that contain a beta-lactamase (BLA) reporter gene under the control of the β-catenin/LEF/TCF response element stably integrated into HCT-116 cells, as shown in FIG. 5A. These cells constitutively express beta-lactamase and can be used to detect agonists and antagonists of the Wnt/β-catenin signaling pathway. The GeneBLAzer assay provides a ratiometric reporter response involving a two-color (blue/green) readout of stimulated and unstimulated cells.
LEF/TCF-bla HCT-116 cells were plated in assay medium (Invitrogen) on clear-bottom plates and incubated overnight at 37° C. […] Cells were next incubated with the Wnt agonist, mWnt3a (provided in the GeneBLAzer kit) for 5 hours at 37° C. Substrate mixture (containing LiveBLAzer™ B/G substrate that employs CCF4-AM, a FRET substrate for beta-lactamase) was added to the wells, and the plate was incubated for 2.5 hours at room temperature in the dark. Black-walled, clear-bottom, 384-well plates (Corning Costar) were used with scanning done with a Spectramax M2. Plates were scanned first (Scan 1 in the blue channel) with excitation filter 409/20 nm and emission filter 460/40 nm. Plates were then scanned (Scan 2 in the green channel) with excitation filer 409/20 nm and emission filter 530/30 nm.

[1] = Preliminary stability study of salt form; type: physicochemical; settings: trifluroacetic acid salt form, 2-8° C. and room temperature, at least one month
JAK/STAT = JAK/STAT transcription assay (SIE-bla ME-180 cell line); type: cell-based
Excerpt: (§1) In these assays, the trifluoroacetic salt form of WX-024 was used.

TGF-beta = TGF-beta transcription assay (SBE-bla HEK 293T cell line); type: cell-based
Excerpt: as §1

TNF-alpha/JNK = TNF-alpha/JNK transcription assay (AP1-bla ME-180 cell line); type: cell-based
Excerpt: as §1

[2] = test system: patient derived colon cancer cells; assay: Patient derived xenograft (PDX) colon cancer model in NOD/SCID mice; type: in vivo; settings: 15 mg/kg i.v. daily
Excerpt: To assess whether WX-024 is also applicable to tumor derived from human patients, a xenograft animal model inoculated with patient derived colon cancer cells was exposed to WX-024. Samples derived from four different colon cancer patients were screened for biomarkers that indicate an elevated level of canonical Wnt/β-catenin signaling. […] The samples were also stained for nuclear co-localization of BCL9 and β-catenin. […] Male NOD/SCID mice at about 5 weeks of age were […] with colon cancer cells derived from patient #8. Briefly, the selected CRC tumor samples from FIG. 28A were sliced into 3 mm^3 fragments and subcutaneously implanted onto the right flank of NOD/SCID mice. […] Each moue was given a daily intravenous administration for more than 31 days. […] At the end of the study, the mice were sacrificed and tumor samples were collected.

[3] = Toxicology study, 14 days i.v., female balb/c mice; type: in vivo
Method: At the end of the study, the mice were sacrificed and various major organs were collected. The tissue samples were treated and processed as described in Example 5.5. […] The body weight of each moue was monitored throughout the study and the average body weight of each treatment group is shown in FIG. 30B. […] At the end of the study, blood from each mouse was also collected for serum chemistry and hematological analysis (complete blood cell count analysis).

[4] = Preclinical summary of multiple animal models; type: in vivo
Excerpt: The in vivo efficacy of WX-024 was confirmed in multiple animal models.

in vivo [5] = settings: male, ICR, mouse
Method: The tail vein was used for i.v. injections. […] Following injections, blood samples were obtained via the retro-orbital vein at 5 min, 1, 2, 4, 6, 8, 12, and 24 hours postdose. Plasma was obtained from the blood samples following mixing with sodium heparin and centrifugation.
LC analysis was done using an Agilent 100 HPLC. MS analysis was done using an AB Sciex API 4000. Calibration standards were prepared by serial dilution.
The maximum observed concentration (Cmax), terminal half-life (T1/2), total body clearance (CL), volume of distribution (Vz), area under the curve from the time of dosing to the last measurable concentration (AUC0-t), area under the curve from the time of dosing extrapolated to infinity (AUC0-inf), and bioavailability were calculated using noncompartmental analysis modules in the FDA-certified pharmacokinetic program WinNonlin Professional v5.2 (Pharsight).
Briefly, the mice were administered 1 mg/kg or 5 mg/kg intravenously, or 5 mg/kg intraperitoneally. Blood samples were collected at 15 min, 1, 2, 3, 6, 8, 12, and 24 hours post administration.

in vivo [6] = settings: female, balb/c, mouse, ip

For `CC[C@H](C)[C@@H]1NC(=O)[C@@](C)(NC(=O)[C@H](CCCNC(=N)N)NC(=O)[C@H](CC(C)C)NC(=O)[C@@H](NC(=O)[C@H](CCC(N)=O)NC(=O)[C@H](CC(C)C)NC(C)=O)[C@@H](C)O)CCCC=CCCC[C@@](C)(C(=O)N[C@@H](CC(C)C)C(=O)N[C@@H](Cc2ccc3ccccc3c2)C(N)=O)NC(=O)[C@H](CCCNC(=N)N)NC(=O)[C@H](CCC(N)=O)NC1=O` [WX-024, LQTLRXaa1IQRXaa2L], the IC50 (Wnt/β-catenin signaling; LEF/TCF-bla HCT-116 cells, read-out: IC50, Wnt transcription) was 0.191 µM and ~0.2 µM, the IC50 (Wnt/β-catenin signaling; acetate salt form, read-out: IC50, Wnt transcription inhibition) was 0.292 µM and the IC50 (Wnt/β-catenin signaling; hydrochloric salt, read-out: IC50, Wnt transcription inhibition) was 0.313 µM. For the same compound, the stability [1] was “stable”, the IC50 (JAK/STAT; Example 4.5, read-out: IC50, JAK/STAT transcription assay) was > 10 µM and the IC50 (JAK/STAT; summary, Example 6, read-out: IC50, JAK/STAT reporter assay) was > 0.1 µM. The IC50 (TGF-beta; Example 4.5, read-out: IC50, TGF-beta transcription assay) was > 10000 nM, the IC50 (TGF-beta; SBE-bla HEK 293T, TGF-beta 1 stimulation, trifluoroacetic salt form, read-out: IC50 (nM), TGF-beta pathway) was > 3160 nM and the IC50 (TGF-beta; summary, Example 6, read-out: IC50, TGF-0 reporter assay) was > 100 nM. For the same compound, the IC50 (TNF-alpha/JNK; AP1-bla ME-180, TNF-alpha stimulation, trifluoroacetic salt form, read-out: IC50 (nM), TNP-alpha/JNK pathway) was > 1000 nM, the IC50 (TNF-alpha/JNK; Example 4.5, read-out: IC50, TNF-alpha/JNK transcription assay) was > 10000 nM and the IC50 (TNF-alpha/JNK; summary, Example 6, read-out: IC50, TNF-α/JNK reporter assay) was > 100 nM. For the same compound, the “CD44 expression in tumor samples” value [2] was “capable of reducing CD44 expression”, the “average tumor growth inhibition rate” value ([2]; after 31 days of dosing) was 75.6% and the “blood cell count profile vs vehicle” value ([3]; 20 mg/kg i.v. daily) was “did not differ significantly”. For the same compound, the average body weight ([3]; 10, 15 or 20 mg/kg i.v. daily) was “stabilized and was maintained throughout the study”, the food consumption ([3]; 10, 15 or 20 mg/kg i.v. daily) was “recovered to near baseline levels with continued treatment” and the drug-related toxicity ([4]; animals chronically dosed) was “no particular drug-related toxicity was observed”. The “average tumor growth inhibition rate” value ([4]; multiple animal models, administered for 3-6 weeks) was 70-80%, the half-life (in vivo [5]) was 2.4 to 2.5 h and the AUC(0-inf) (in vivo [6]; 10 mg/kg) was 41.1 µg·h/mL. It also gave an AUC(0-t) (in vivo [6]; 10 mg/kg) of 37.8 µg·h/mL, a Tmax (in vivo [6]; 10 mg/kg) of 2 h and an AUC(0-inf) (in vivo [6]; 15 mg/kg) of 109 µg·h/mL. It also gave an AUC(0-t) (in vivo [6]; 15 mg/kg) of 107 µg·h/mL, a Cmax (in vivo [6]; 15 mg/kg) of 8.75 µg/mL and a Tmax (in vivo [6]; 15 mg/kg) of 3.33 h. For the same compound, the AUC(0-inf) (in vivo [6]; 20 mg/kg) was 161 µg·h/mL, the AUC(0-t) (in vivo [6]; 20 mg/kg) was 160 µg·h/mL and the Cmax (in vivo [6]; 20 mg/kg) was 13.7 µg/mL. For the same compound, the Tmax (in vivo [6]; 20 mg/kg) was 4 h.
